Source: patent US7960422B2, “Pharmaceutically active compounds containing tetrazolyl and triazolyl rings” (AstraZeneca AB, priority 2007, dated 2011)

Target: T1, human mGluR5d (Homo sapiens, UniProt P41594)
T1 construct: expressed in transfected cells
Test: IP3 assay (phosphatidylinositol turnover, functional mGluR5 antagonism)
Type: cell-based
Conditions: GHEK cells stably expressing human mGluR5d; glutamate (80 μM) or DHPG (30 μM) as agonist
Text: Biological Evaluation Functional Assessment of mGluR5 Antagonism in Cell Lines Expressing mGluR5D
The properties of the compounds of the invention can be analyzed using standard assays for pharmacological activity. Examples of glutamate receptor assays are well known in the art as described in for example Aramori et al., Neuron 8:757 (1992), Tanabe et al., Neuron 8:169 (1992), Miller et al., J. Neuroscience 15: 6103 (1995), Balazs, et al., J. Neurochemistry 69:151 (1997). The methodology described in these publications is incorporated herein by reference. Conveniently, the compounds of the invention can be studied by means of an assay (FLIPR) that measures the mobilization of intracellular calcium, [Ca^2+]i in cells expressing mGluR5 or another assay (IP3) that measures inositol phosphate turnover.
An additional functional assay for mGluR5d is described in WO97/05252 and is based on phosphatidylinositol turnover. Receptor activation stimulates phospholipase C activity and leads to increased formation of inositol 1,4,5,triphosphate (IP3).
GHEK stably expressing the human mGluR5d are seeded onto 24 well poly-L-lysine coated plates at 40×10^4 cells/well in media containing 1 μCi/well [3H] myo-inositol. Cells were incubated overnight (16 h), then washed three times and incubated for 1 h at 37° C. in HEPES buffered saline (146 mM NaCl, 4.2 mM KCl, 0.5 mM MgCl2, 0.1% glucose, 20 mM HEPES, pH 7.4) supplemented with 1 unit/ml glutamate pyruvate transaminase and 2 mM pyruvate. Cells are washed once in HEPES buffered saline and pre-incubated for 10 min in HEPES buffered saline containing 10 mM LiCl. Compounds are incubated in duplicate at 37° C. for 15 min, then either glutamate (80 μM) or DHPG (30 μM) is added and incubated for an additional 30 min. The reaction is terminated by the addition of 0.5 ml perchloric acid (5%) on ice, with incubation at 4° C. for at least 30 min. Samples are collected in 15 ml polyproplylene tubes and inositol phosphates are separated using ion-exchange resin (Dowex AG1-X8 formate form, 200-400 mesh, BIORAD) columns. Inositol phosphate separation was done by first eluting glycero phosphatidyl inositol with 8 ml 30 mM ammonium formate. Next, total inositol phosphates is eluted with 8 ml 700 mM ammonium formate/100 mM formic acid and collected in scintillation vials. This eluate is then mixed with 8 ml of scintillant and [3H] inositol incorporation is determined by scintillation counting. The dpm counts from the duplicate samples are plotted and IC50 determinations are generated using a linear least squares fitting program.

T1 sequence (P41594 21-942 isoform P41594-3 limits assumed): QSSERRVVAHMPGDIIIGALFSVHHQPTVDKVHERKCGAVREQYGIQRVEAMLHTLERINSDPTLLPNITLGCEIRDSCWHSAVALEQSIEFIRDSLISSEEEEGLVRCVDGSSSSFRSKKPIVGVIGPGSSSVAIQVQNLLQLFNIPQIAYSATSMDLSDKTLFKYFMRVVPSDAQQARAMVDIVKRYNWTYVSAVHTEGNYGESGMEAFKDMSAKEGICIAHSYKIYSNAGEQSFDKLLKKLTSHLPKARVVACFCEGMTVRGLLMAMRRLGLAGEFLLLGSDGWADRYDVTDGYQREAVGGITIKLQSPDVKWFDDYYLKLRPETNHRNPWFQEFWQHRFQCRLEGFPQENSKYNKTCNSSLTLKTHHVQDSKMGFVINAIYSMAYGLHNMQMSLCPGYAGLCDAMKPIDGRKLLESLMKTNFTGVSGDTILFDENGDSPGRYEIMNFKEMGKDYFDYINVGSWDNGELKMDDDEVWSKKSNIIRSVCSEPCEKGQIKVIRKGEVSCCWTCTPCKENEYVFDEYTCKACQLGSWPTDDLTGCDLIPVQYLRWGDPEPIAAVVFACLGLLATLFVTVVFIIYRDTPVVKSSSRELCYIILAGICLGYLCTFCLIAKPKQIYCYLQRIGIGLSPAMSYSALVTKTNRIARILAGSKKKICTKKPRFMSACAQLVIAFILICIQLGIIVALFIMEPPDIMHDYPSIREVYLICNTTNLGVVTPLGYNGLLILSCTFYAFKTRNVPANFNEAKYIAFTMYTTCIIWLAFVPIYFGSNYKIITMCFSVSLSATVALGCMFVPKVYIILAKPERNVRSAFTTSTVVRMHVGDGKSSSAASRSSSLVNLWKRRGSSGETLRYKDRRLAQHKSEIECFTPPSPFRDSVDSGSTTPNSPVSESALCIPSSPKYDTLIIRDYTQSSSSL

| Structure (SMILES) | IC50 |
| --- | --- |
| Cc1cccc(-n2nnc([C@@H](C)Oc3nnc(-c4ncccn4)n3C)n2)c1 [Example 10.1, 2-(4-methyl-5-{(1R)-1-[2-(3-methylphenyl)-2H-tetrazol-5-yl]ethoxy}-4H-1,2,4-triazol-3-yl)pyrimidine] | 36 nM |
| Cc1cccc(-n2nnc([C@@H](C)Oc3nnc(-c4cncnc4)n3C)n2)c1 [Example 10.2, 5-(4-methyl-5-{(1R)-1-[2-(3-methylphenyl)-2H-tetrazol-5-yl]ethoxy}-4H-1,2,4-triazol-3-yl)pyrimidine] | 25 nM |
| Cc1cccc(-n2nnc([C@@H](C)Oc3nnc(-c4cnc(C)cn4)n3C)n2)c1 [Example 10.3, 2-methyl-5-(4-methyl-5-{(1R)-1-[2-(3-methylphenyl)-2H-tetrazol-5-yl]ethoxy}-4H-1,2,4-triazol-3-yl)pyrazine] | 22 nM |
| Cc1cccc(-n2nnc([C@@H](C)Oc3nnc(-c4ccnc(C)c4)n3C)n2)c1 [Example 10.4, 2-methyl-4-(4-methyl-5-{(1R)-1-[2-(3-methylphenyl)-2H-tetrazol-5-yl]ethoxy}-4H-1,2,4-triazol-3-yl)pyridine] | 20 nM |
| Cc1cccc(-n2nnc([C@@H](C)Oc3nnc(-c4cccnc4)n3C)n2)c1 [Example 10.5] | 23 nM |
